Measurements reported in patent US20150344540A1, “NOVEL GLP-1 RECEPTOR AGONISTS WITH CHOLESTEROL EFFLUX ACTIVITY” (NOVO NORDISK A/S, priority 2012, published 2015).
pEC50: −log10 of the molar value. Where a SMILES comes first, the peptide text is derived from it. [ ]: non-standard residue; d: D form. Aib = CC(C)(N)C(=O)O

Test system: Mouse monocyte/macrophage cell line, RAW 264.7
Experiment: Cholesterol efflux assay (3H-cholesterol, macrophage cell line)
Assay type: cell-based
Conditions: RAW 264.7, 4 hrs incubation, 0.1% human serum albumin; for 4 h Cholesterol Efflux Emax: ABCA1-mediated efflux; for pEC50: read-out: 4 h Cholesterol Efflux EC50, ABCA1-mediated efflux (CPT-cAMP induced minus non-induced)

Molecule	4 h Cholesterol Efflux Emax [%]	pEC50
CC[C@H](C)[C@H](NC(=O)[C@H](Cc1ccccc1)NC(=O)[C@H](CCC(=O)O)NC(=O)[C@H](CCCNC(=N)N)NC(=O)[C@@H](NC(=O)[C@H](C)NC(=O)[C@H](CCC(=O)O)NC(=O)[C@H](CCC(=O)O)NC(=O)[C@H](CCC(=O)O)NC(=O)[C@H](CCSC)NC(=O)[C@H](CCC(N)=O)NC(=O)[C@H](CCCCN)NC(=O)[C@H](CO)NC(=O)[C@H](CC(C)C)NC(=O)[C@H](CC(=O)O)NC(=O)[C@H](CO)NC(=O)[C@@H](NC(=O)[C@H](Cc1ccccc1)NC(=O)[C@@H](NC(=O)CNC(=O)[C@H](CCC(=O)O)NC(=O)C(C)(C)NC(=O)[C@@H](N)Cc1c[nH]cn1)[C@@H](C)O)[C@@H](C)O)C(C)C)C(=O)N[C@@H](CCC(=O)O)C(=O)N[C@@H](Cc1c[nH]c2ccccc12)C(=O)N[C@@H](CC(C)C)C(=O)N[C@@H](CCCCN)C(=O)N[C@@H](CC(N)=O)C(=O)N[C@@H](CCCCN)C(=O)NC(C)(C)C(=O)N[C@@H](CC(C)C)C(=O)N[C@@H](CCC(=O)O)C(=O)N[C@@H](Cc1ccccc1)C(=O)N[C@@H](CC(C)C)C(=O)N[C@@H](CCC(=O)O)C(=O)N[C@@H](CC(C)C)C(=O)N[C@@H](CC(C)C)C(=O)O [Compound 23, [Aib2,Glu21,Lys29,Aib30,Leu31,Glu32,Phe33,Leu34,Glu35,Leu36,Leu371-Exendin-4-(1-37)-peptide]	99	6.14
CC[C@H](C)[C@H](NC(=O)[C@H](Cc1ccccc1)NC(=O)[C@H](CCC(=O)O)NC(=O)[C@H](CCCCN)NC(=O)[C@H](C)NC(=O)[C@H](C)NC(=O)[C@H](CCC(N)=O)NC(=O)CNC(=O)[C@H](CCC(=O)O)NC(=O)[C@H](CC(C)C)NC(=O)[C@H](Cc1ccc(O)cc1)NC(=O)[C@H](CO)NC(=O)[C@H](CO)NC(=O)[C@@H](NC(=O)[C@H](CC(=O)O)NC(=O)[C@H](CO)NC(=O)[C@@H](NC(=O)[C@H](Cc1ccccc1)NC(=O)[C@@H](NC(=O)CNC(=O)[C@H](CCC(=O)O)NC(=O)[C@H](C)NC(=O)[C@@H](N)Cc1c[nH]cn1)[C@@H](C)O)[C@@H](C)O)C(C)C)C(=O)N[C@@H](C)C(=O)N[C@@H](Cc1c[nH]c2ccccc12)C(=O)N[C@@H](CC(C)C)C(=O)N[C@H](C(=O)N[C@@H](CCCCN)C(=O)NCC(=O)N[C@@H](CCCNC(=N)N)C(=O)NCC(=O)O)C(C)C [GLP-1(7-37), reference compound]	<10	–
CC[C@H](C)[C@H](NC(=O)[C@H](Cc1ccccc1)NC(=O)[C@H](CCC(=O)O)NC(=O)[C@H](CCCCN)NC(=O)[C@@H](NC(=O)[C@H](C)NC(=O)[C@H](CCC(=O)O)NC(=O)[C@@H]1CCCN1C(=O)[C@H](CCC(=O)O)NC(=O)[C@H](CC(C)C)NC(=O)[C@H](Cc1ccc(O)cc1)NC(=O)[C@H](CO)NC(=O)[C@H](CO)NC(=O)[C@@H](NC(=O)[C@H](CC(=O)O)NC(=O)[C@H](CO)NC(=O)[C@@H](NC(=O)[C@H](Cc1ccccc1)NC(=O)[C@@H](NC(=O)CNC(=O)[C@H](CCC(=O)O)NC(=O)C(C)(C)NC(=O)[C@@H](N)Cc1c[nH]cn1)[C@@H](C)O)[C@@H](C)O)C(C)C)C(C)C)C(=O)N[C@@H](C)C(=O)N[C@@H](Cc1c[nH]c2ccccc12)C(=O)N[C@@H](CC(C)C)C(=O)N[C@H](C(=O)N[C@@H](CCC(=O)O)C(=O)N[C@@H](CCCCN)C(=O)NC(C)(C)C(=O)N[C@@H](CCCCN)C(=O)N[C@@H](CCC(=O)O)C(=O)N[C@@H](Cc1ccccc1)C(=O)N[C@@H](CC(C)C)C(N)=O)C(C)C [Compound 101, [Aib8,Pro22,Glu23,Val25,Glu34,Lys35,Aib36,Lys37]-GLP-1-(7-37)-peptidyl-Glu-Phe-Leu amide] (H-H[Aib]EGTFTSDVSSYLEPEAVKEFIAWLVEK[Aib]KEFL-NH2; N-terminus assumed)	92	6.55
H-HGEGTFTSDVSSYLEGEAVKEFIAWLVEKVKEFLG-OH [Compound 92, [Gly8,Glu23,Val25,Glu34,Lys35,Val36,Lys37]-GLP-1-(7-37)-peptidyl-Glu-Phe-Leu-Gly]	129	–
CC[C@H](C)[C@H](NC(=O)[C@H](Cc1ccccc1)NC(=O)[C@H](CCC(=O)O)NC(=O)[C@H](CCCCN)NC(=O)[C@@H](NC(=O)[C@H](CCCCN)NC(=O)[C@H](CCC(=O)O)NC(=O)CNC(=O)[C@H](CCC(=O)O)NC(=O)[C@H](CC(C)C)NC(=O)[C@H](Cc1ccc(O)cc1)NC(=O)[C@H](CO)NC(=O)[C@H](CO)NC(=O)[C@@H](NC(=O)[C@H](CC(=O)O)NC(=O)[C@H](CO)NC(=O)[C@@H](NC(=O)[C@H](Cc1ccccc1)NC(=O)[C@@H](NC(=O)CNC(=O)[C@H](CCC(=O)O)NC(=O)C(C)(C)NC(=O)[C@@H](N)Cc1c[nH]cn1)[C@@H](C)O)[C@@H](C)O)C(C)C)C(C)C)C(=O)N[C@@H](CCC(=O)O)C(=O)N[C@@H](Cc1c[nH]cn1)C(=O)N[C@@H](CC(C)C)C(=O)N[C@H](C(=O)N[C@@H](CCC(=O)O)C(=O)N[C@@H](CCCCN)C(=O)NC(C)(C)C(=O)N[C@@H](CCCCN)C(=O)N[C@@H](CCC(=O)O)C(=O)N[C@@H](Cc1ccccc1)C(=O)N[C@@H](CC(C)C)C(N)=O)C(C)C [Compound 71, [Aib8,Glu23,Lys24,Val25,Glu30,His31,Glu34,Lys35,Aib36,Lys37]-GLP-1-(7-37)-peptidyl-Glu-Phe-Leu amide] (H-H[Aib]EGTFTSDVSSYLEGEKVKEFIEHLVEK[Aib]KEFL-NH2)	130	–
CC[C@H](C)[C@H](NC(=O)[C@H](Cc1ccccc1)NC(=O)[C@H](CCC(=O)O)NC(=O)[C@H](CCCCN)NC(=O)[C@@H](NC(=O)[C@H](C)NC(=O)[C@H](CCC(=O)O)NC(=O)CNC(=O)[C@H](CCC(=O)O)NC(=O)[C@H](CC(C)C)NC(=O)[C@H](Cc1ccc(O)cc1)NC(=O)[C@H](CO)NC(=O)[C@H](CO)NC(=O)[C@@H](NC(=O)[C@H](CC(=O)O)NC(=O)[C@H](CO)NC(=O)[C@@H](NC(=O)[C@H](Cc1ccccc1)NC(=O)[C@@H](NC(=O)CNC(=O)[C@H](CCC(=O)O)NC(=O)C(C)(C)NC(=O)[C@@H](N)Cc1c[nH]cn1)[C@@H](C)O)[C@@H](C)O)C(C)C)C(C)C)C(=O)N[C@@H](C)C(=O)N[C@@H](Cc1c[nH]c2ccccc12)C(=O)N[C@@H](CC(C)C)C(=O)N[C@H](C(=O)N[C@@H](CCC(=O)O)C(=O)N[C@@H](CCCCN)C(=O)NC(C)(C)C(=O)N[C@@H](CCCCN)C(=O)N[C@@H](CCC(=O)O)C(=O)N[C@@H](Cc1ccccc1)C(=O)N[C@@H](CC(C)C)C(=O)N[C@@H](CCC(=O)O)C(=O)O)C(C)C [Compound 100, [Aib8,Glu23,Val25,Glu34,Lys35,Aib36,Lys37]-GLP-1-(7-37)-peptidyl-Glu-Phe-Leu-Glu]	104	6.16
CC[C@H](C)[C@H](NC(=O)[C@H](Cc1ccccc1)NC(=O)[C@H](CCC(=O)O)NC(=O)[C@H](CCCCN)NC(=O)[C@@H](NC(=O)[C@H](C)NC(=O)[C@H](CCC(=O)O)NC(=O)CNC(=O)[C@H](CCC(=O)O)NC(=O)[C@H](CC(C)C)NC(=O)[C@H](Cc1ccc(O)cc1)NC(=O)[C@H](CO)NC(=O)[C@H](CO)NC(=O)[C@@H](NC(=O)[C@H](CC(=O)O)NC(=O)[C@H](CO)NC(=O)[C@@H](NC(=O)[C@H](Cc1ccccc1)NC(=O)[C@@H](NC(=O)CNC(=O)[C@H](CCC(=O)O)NC(=O)C(C)(C)NC(=O)[C@@H](N)Cc1c[nH]cn1)[C@@H](C)O)[C@@H](C)O)C(C)C)C(C)C)C(=O)N[C@@H](C)C(=O)N[C@@H](Cc1c[nH]c2ccccc12)C(=O)N[C@@H](CC(C)C)C(=O)N[C@H](C(=O)N[C@@H](CCC(=O)O)C(=O)N[C@@H](CCCCN)C(=O)NC(C)(C)C(=O)N[C@@H](CCCCN)C(=O)N[C@@H](CCC(=O)O)C(=O)N[C@@H](Cc1ccccc1)C(=O)N[C@@H](CC(C)C)C(=O)N[C@@H](CCC(=O)O)C(=O)N[C@@H](CCCCN)C(=O)N[C@H](C(=O)N[C@@H](CCCCN)C(=O)N[C@@H](CCC(=O)O)C(=O)N[C@@H](Cc1ccccc1)C(=O)O)C(C)C)C(C)C [Compound 97]	125	6.39
CC[C@H](C)[C@H](NC(=O)[C@H](Cc1ccccc1)NC(=O)[C@H](CCC(=O)O)NC(=O)[C@H](CCCNC(=N)N)NC(=O)[C@H](C)NC(=O)[C@H](CCCNC(=N)N)NC(=O)[C@H](CCCCN)NC(=O)CNC(=O)[C@H](CCC(=O)O)NC(=O)[C@H](CC(C)C)NC(=O)[C@H](Cc1ccc(O)cc1)NC(=O)[C@H](CO)NC(=O)[C@H](CO)NC(=O)[C@@H](NC(=O)[C@H](CC(=O)O)NC(=O)[C@H](CO)NC(=O)[C@@H](NC(=O)[C@H](Cc1ccccc1)NC(=O)[C@@H](NC(=O)CNC(=O)[C@H](CCC(=O)O)NC(=O)C(C)(C)NC(=O)[C@@H](N)Cc1c[nH]cn1)[C@@H](C)O)[C@@H](C)O)C(C)C)C(=O)N[C@@H](C)C(=O)N[C@@H](Cc1c[nH]c2ccccc12)C(=O)N[C@@H](CC(C)C)C(=O)N[C@H](C(=O)N[C@@H](CCC(=O)O)C(=O)N[C@@H](CCCCN)C(=O)NC(C)(C)C(=O)N[C@@H](CCCCN)C(=O)N[C@@H](CCC(=O)O)C(=O)N[C@@H](Cc1ccccc1)C(=O)N[C@@H](CC(C)C)C(N)=O)C(C)C [Compound 52, [Aib8,Lys23,Arq24,Arq26,Glu34,Lys35,Aib36,Lys37]-GLP-1-(7-37)-peptidyl-Glu-Phe-Leu amide] (H-H[Aib]EGTFTSDVSSYLEGKRAREFIAWLVEK[Aib]KEFL-NH2)	98	–
CC[C@H](C)[C@H](NC(=O)[C@H](Cc1ccccc1)NC(=O)[C@H](CCC(=O)O)NC(=O)[C@H](CCCCN)NC(=O)[C@H](C)NC(=O)[C@H](C)NC(=O)[C@H](CCC(N)=O)NC(=O)CNC(=O)[C@H](CCC(=O)O)NC(=O)[C@H](CC(C)C)NC(=O)[C@H](Cc1ccc(O)cc1)NC(=O)[C@H](CO)NC(=O)[C@H](CO)NC(=O)[C@@H](NC(=O)[C@H](CC(=O)O)NC(=O)[C@H](CO)NC(=O)[C@@H](NC(=O)[C@H](Cc1ccccc1)NC(=O)[C@@H](NC(=O)CNC(=O)[C@H](CCC(=O)O)NC(=O)C(C)(C)NC(=O)[C@@H](N)Cc1c[nH]cn1)[C@@H](C)O)[C@@H](C)O)C(C)C)C(=O)N[C@@H](C)C(=O)N[C@@H](Cc1c[nH]c2ccccc12)C(=O)N[C@@H](CC(C)C)C(=O)N[C@H](C(=O)N[C@@H](CCCCN)C(=O)N[C@@H](CCCCN)C(=O)NC(C)(C)C(=O)N[C@@H](CCCCN)C(=O)N[C@@H](CCC(=O)O)C(=O)N[C@@H](Cc1ccccc1)C(=O)N[C@@H](CC(C)C)C(N)=O)C(C)C [Compound 47, [Aib8,Lys35,Aib36,Lys37]-GLP-1-(7-37)-peptidyl-Glu-Phe-Leu amide]	55	–
